In patent US20240228536A1, “PEPTIDES FOR USE IN SKIN AND HAIR PIGMENTATION” (Follicum AB, priority 2020, published 2024):
Peptide text beside a SMILES is read from it.

What was measured:
[1] = Stability study, purity of FOL-005 by HPLC on storage; assay type: physicochemical
Description: FOL-005 lyophilized powder was dissolved in phosphate/citrate buffer of pHs 5, 6, 7 or 7.6. Samples of each formulation were analysed for purity using high-pressure liquid chromatography after up to 3 months of storage at 25° C. respectively. In addition, an essentially water-free formulation of FOL-005 was stored at 25° C. and samples were analysed for purity after up to 12 months of storage.
FOL-005/sucrose lyophilized powder was formulated to a suspension in dried or un-dried isopropyl myristate, paraffin oil/petrolatum, Sorbitan laurate and glyceryl behenate. Samples of each formulation were analysed for purity using high pressure liquid chromatography after up to 12 months of storage at 2-8, 25 and 30° C. respectively.

[2] = Solubility of FOL-005 in propylene glycol; assay type: physicochemical; conditions: in propylene glycol at room temperature
[3] = test system: Pigmented skin equivalents (SEs), Melanoderms Mel-300-A (donor) and Mel-300-C-2 (donor); experiment: Skin equivalent culture, photographic assessment of pigmentation; assay type: cell-based, human
Description: The skin equivalent surface area was 63.6 mm^2. Other equipment used included SMZ1000 Stereo Microscope (Nikon); UC30 Microscope Camera (Olympus); Phosphate-Buffered Saline (PBS); 6-well Tissue Culture Plates (Sarstedt); Image J software (https://imagej.nih.gov); Paintshop Photo Pro Software (Corel). The Melanoderms were prepared by carefully removing the agarose with sterile forceps and placing them in pre-warmed culture medium (37° C.) for an hour prior to treatment. The Melanoderms were then topically treated (without rubbing) with 25 μl of the various peptides, dissolved in dH2O at 10 mg/ml. […] The SEs were examined and removed from culture when skin darkening became visible. The pigmentation of the Melanoderms was macroscopically assessed by capturing high-resolution images using the Olympus microscope camera. […] They were then placed into a 6-well plate containing 1 ml PBS/well and images captured at ×8 magnification. The images were then processed using Image J & Paintshop Photo Pro software, to determine a quantifiable pixel area, which equated to the level of pigmentation present in the skin equivalent. The image brightness was normalised and the image gray-scaled using Paintshop Photo Pro, then Image J was used to threshold the image. The pigmentation was quantified by assessing total pixel area of pigmentation coverage in a fixed sample area. An ANOVA test (Dunnett's post-test) was used for the statistical analysis. Three different experiments were conducted. In the first, skin equivalents from both donors were included, and in experiment 2 and 3, only the […] donor was included. The SE of the […] donor from the first experiment received 5 treatments of 25 μl of peptide solution at 10 mg/ml; starting on the first day following receipt then on days 3, 5, 9 and 12. Peptides 1 (SEQ ID NO: 2), 3 (SEQ ID NO: 3) and 4 (SEQ ID NO: 4) were tested. The images were taken on Day 14. In experiment 2, peptide 3 and 4 were selected for testing to see if it had any efficacy in reducing melanin content or the distribution of melanin throughout the SE. This time, 5 SEs were used per treatment to improve statistical robustness. The experiment was continued for 20 days with treatments on days 0, 3, 7 and 12 and medium changes every other day. In experiment 3 a more highly pigmented SE ([…] donor melanocytes) was used and with an increased sample size with n=7 per treatment. […] Treatment was repeated on days 5, 9, 12 and 15 with medium changed every other day.

skin equivalents = experiment: Total melanin assay; assay type: cell-based, human; conditions: experiment 2, 10 mg/ml topical, day 20, n=4
Description: The skin equivalents used in this study was from the same donors as in Example 2. The determination of the total melanin content of the skin equivalent was determined using a total melanin assay.
The total melanin content of the SE was calculated by dissolving the SE in Soluene and reading the absorbance against a standard curve. The SEs were removed from culture on day 20 and washed with PBS. They were then transferred to a glass centrifuge tube and 500 μl Soluene added. The tubes were then covered with […]®, gently vortexed and placed on the Thermomixer at 50° C. for 1 hour. The tubes were then gently vortexed and 150 μl of the sample and synthetic melanin standards pipetted in triplicate into a glass 96 well plate. The absorbance was then measured at 490 nm on a Spectrophotometer. Results are presented in μg/ml against a standard curve. The change of melanin content is expressed as a percentage change versus vehicle control samples. An ANOVA (with Dunnett's post-test) was used for the statistical analysis.
Three experiments were conducted, and the same donors were used as in Example 2. The sample sizes were as follows: experiment 1 n=2, experiment 2 n=4 and experiment 3 n=7. Peptides 1 (SEQ ID NO: 2), 3 (SEQ ID NO: 3) and 4 (SEQ ID NO: 4) were tested.

skin equivalents (SEs) = experiment: H&E and Warthin Starry staining of skin equivalents; assay type: cell-based, human; conditions: day 20
Text: Two skin equivalents (SEs) were used from one donor.
The analysis was achieved using the Warthin Starry assay using our recently published method (Joly-Tonetti et al 2016) and hematoxylin&eosin (H&E) staining.
The SEs were stained with Warthin Starry stain to visualise and quantify the melanin in sections. The SEs were removed from culture on day 20 and washed in PBS. They were then flash frozen in liquid nitrogen and mounted in OCT for sectioning. 10 μm sections were cut using a cryostat, the sections collected on slides and fixed in Acetone for 10 mins. The OCT was removed from the section by washing in acidulated water for 20 mins. The slides were then incubated in 1% silver nitrate solution for 1 hour at 43° C. […] The slides were stained for 2 mins then the staining was stopped by running the slides under hot tap water. Slides were then mounted using Histomount. Brightfield images were captured using a Nikon Eclipse microscope. Image analysis of the melanin density in sections was performed using Image J and densitometric thresholding. Results are presented in pixel intensity units. For the hematoxylin&eosin (H&E) staining, the SEs were flash frozen, sectioned and fixed as above. The slides were then washed in dH2O to remove the OCT for 20 mins. Haematoxylin was filtered using filter paper into a Coplin jar. Further Coplin jars were also prepared containing the following: Tap Water, Scott's Tap Water, 0.25% Eosin, 50% Ethanol, 70% Ethanol, 90% Ethanol, Ethanol and Histoclear. The slides were then placed into Haematoxylin for 2 mins, and then placed into tap water for 30 secs, Scott's Tap Water for 1 min & Eosin for 2 mins. The slides were then dehydrated through the Ethanol (1 min each) then placed into Histoclear for 2 mins and mounted using Histomount. Brightfield images were captured using a Nikon Eclipse microscope.

Molecule	degradation of FOL-005 ([1]; at various pH (buffers))	degradation of FOL-005 ([1]; water free conditions)	solubility of FOL-005 [2]	pigmentation of skin equivalents (photographic assessment) compared to vehicle control ([3]; experiment 1, donor, 5 topical treatments of 25 μl at 10 mg/ml in dH2O, images Day 14)	pigmentation of skin equivalents (photographic assessment) compared to vehicle control ([3]; experiment 2, donor, 10 mg/ml, 20 days, n=5)	pigmentation of skin equivalents (photographic assessment) compared to vehicle control ([3]; experiment 3, more highly pigmented SE (donor), 10 mg/ml, n=7)	total melanin content of skin equivalents vs vehicle control (skin equivalents)	melanin content and distribution in SE sections (Warthin Starry) (skin equivalents (SEs); one of the donors (FIG. 3A))	melanin content and distribution in SE sections (Warthin Starry) (skin equivalents (SEs); second donor (FIG. 3B-D))
CC[C@H](C)[C@H](NC(=O)[C@H](CC(=O)O)NC(=O)CNC(=O)[C@H](CC(=O)O)NC(=O)[C@H](Cc1ccc(O)cc1)NC(=O)[C@@H](NC(=O)[C@H](CC(=O)O)NC(=O)[C@@H](N)C(C)C)[C@@H](C)O)C(=O)N[C@@H](CO)C(=O)N[C@H](C(=O)N[C@H](C(=O)N[C@@H](Cc1ccc(O)cc1)C(=O)NCC(=O)N[C@@H](CC(C)C)C(=O)N[C@@H](CCCNC(=N)N)C(=O)O)C(C)C)C(C)C [FOL-005] (H-VDTYDGDISVVYGLR-OH; N-terminus and C-terminus assumed)	degraded	very limited	160 µg/mL	–	–	–	–	–	–
Ala-Ala-His-Met (AAHM; (1)..(4) Peptide 3)	–	–	–	equivalent or slightly less pigmented than the vehicle control	slight decrease in pigmentation	little effect	no difference	reduction in melanin in the upper epidermal layers	did not appear to have any obvious effect
